Data reported in patent EP0240630A2, “Treatment of skin of over androgenicity using compositions containing pregnenolone” (priority 1986, dated 1987).

Assays:
3βHSD = test: In vivo metabolism of injected 1,2-3H-DHA in DHA-stimulated hamster flank organs after topical inhibitor; set-up: species or system Syrian Golden Hamsters; details: female hamsters, pregnenolone topical for 3 days; 1 hour after intracardial ³H-DHA
Text: The effects of hormones and hormonally active substances on sebaceous glands can also be evaluated using the Syrian hamster flank organs as an animal model. The results of experiments using hamsters are valuable inasmuch as they can provide in vivo confirmation of the in vitro experiments like those described above using rat preputial gland. The flank organs, also called the costovertebral spot or the costovertebral organ, are sebaceous structures located on each flank of the animal. Like the sebaceous glands of the human and the preputial gland of the rate they are androgen dependent (Voigt and Hsia, 1973; Gomez and Frost, 1969; Frost and Gomez, 1973).
Hamster flank organs were accordingly used to test in vivo the androgenic inhibitory properties of pregnenolone.
Female Syrian Golden Hamsters were used in this experiment. […]
On the afternoon of day 3, an intracardial injection of 1,2-³H-DHA (5µCi/0.1 ml saline buffer solution) was given to both experimental groups anesthetized with ether. […] Each organ was then placed in a 16 mm x 150 mm test tube containing methanol and was homogenized, extracted and analyzed for steroid metabolites by separating the metabolites using thin layer chromatography as described above, scraping the thus separated metabolites from the thin layer plates, and quantitating using a scintillation counter. […]
Results are shown in Figure 2 expressed as DPM/mg tissue.

acne vulgaris = type: in vivo, human
Method: The following experiment was conducted and is a typical trial. In a double-blind clinical trial 23 patients with acne vulgaris volunteered to participate. Fifteen patients (11 females and 4 males) were given a 1% solution of pregnenolone dissolved in isopropanol containing 1% glycerol, and 8 patients (5 females and 3 males) were given a 1% solution of glycerol in isopropanol. Neither the patients nor the attending dermatologist knew whether or not the dispensed solution contained pregnenolone. The patients were instructed to stop using their previous medications for two weeks and then to apply the given solution to their faces twice daily. They were reexamined biweekly.

[1] = tested on: 3β-hydroxysteroid dehydrogenase Δ^4-5-isomerase (3βHSD); test: Inhibition of 3βHSD conversion of 3H-DHA in rat preputial gland homogenate (TLC/scintillation counting); type: biochemical; details: rat preputial gland homogenate, 1,2-³H-DHA with 100 nmoles DHA, 37°C; range of four separate incubations
Method: To assess the androgen inhibiting activity of pregnenolone, rat preputial gland was employed to investigate the in vitro androgenic action of DHA. […] A pair of the glands are situated in the prepuce of the rate of either sex weighing between 125-200 mg in an average 200 g rat, being slightly larger in the male animal. The animals employed were female Sprague-Dawley rats, 10-12 weeks old and weighing 225-300 g.
The experimental format, stated broadly, was to excise preputial glands from rats and prepare a homogenate therefrom. A predetermined amount of homogenate (the sample) was then spiked with radiolabeled (with ³H) DHA, in the presence or absence of pregnenolone, and the sample was incubated. […] The metabolites were quantitated by removal from the thin layer plate and counting in a scintillation counter. By determining the extent of metabolite formation, the extent of inhibition of 3βHSD could be correspondingly determined. […]
Experiments were initially conducted to ensure that DHA and its metabolites could be separated chromatographically. […] The position of the steroid can be readily traced with this method. […] Elution and quantitative evaluation of steroids can be effected after removal of the iodine. […] For quantitation the plates were then scraped in 1 cm sections for radioassay of ³H in a Packard Tri- Carb liquid scintillation counter. […]

[2] = Solubility in formulation vehicles; type: physicochemical
Text: With regard to formulation for use with humans, because pregnenolone is insoluble in water, most aqueous base vehicles or carriers are not useful in the invention. Vehicles with a high content of alcohols, such as isopropanol or mixtures of alcohols with longer (C₄-C₁₀) alkane or alkene chains, in which pregnenolone is soluble, would afford a suitable base for the formulation as liquid, gel or cream. Glycerol may be added in the preparation as an emollient. Glycerol is hygroscopic; it keeps the skin surface from drying. Other additions of moisturizers or perfumes as known in the art are compatible with pregnenolone.

flank organs = test: Stimulation of female hamster flank organ growth by topical DHA; type: in vivo, female hamsters; details: 12 µg, 60 µg, 120 µg applied to the right side, 7 days/week for 6 weeks
Method: Before testing the anti-androgenic properties of pregnenolone on hamster flank organs and relying on the results, a centrally important question therefore needed to be answered -- Could DHA be shown to stimulate growth in the flank organs? This question was answered by applying graded doses of DHA, 12 µg, 60 µg, 120 µg to the right side of female hamsters (5 hamsters/group), for 7 days/week for 6 weeks.

flank organ = details: topical application, graded doses, 5 days/week for 2 weeks; cited from earlier work
[3] = 1% pregnenolone in isopropanol containing 1% glycerol, face, twice daily, twelve weeks, 15 patients

What does the source list for `CC(=O)[C@H]1CC[C@H]2[C@@H]3CC=C4C[C@@H](O)CC[C@]4(C)[C@H]3CC[C@]12C` [pregnenolone, Δ⁵-pregnene-3β-o1-20-one]?
formation of testosterone, DHT and androstanediol in flank organs, control versus treated (3βHSD): Control hamsters, not treated with inhibitor, show greater formation; patients noted definite improvement, with reduction in the size and number of lesions (acne vulgaris; [3]): 33%; patients noted no change in lesions or oiliness (acne vulgaris; [3]): 26%; patients noted reduction of oiliness (acne vulgaris; [3]): 13%; patients noted slight reduction of the number of lesions and a reduction in the oiliness of the skin (acne vulgaris; [3]): 26%; patients showed marked reductions in skin oiliness and in pore size (acne vulgaris; 1% pregnenolone in isopropanol containing 1% glycerol, twelve weeks, 15 patients): two; patients' comparison with other medications used previously (acne vulgaris; claim of patients who had used other medications previously): more effective and more acceptable; irritation or discomfort caused by the topical application (acne vulgaris; human, in vivo): no complaint; inhibition of the 3βHSD for DHA (Δ⁴-3-keto product formed, relative to absence of the inhibitor) [1]: 91-92%; solubility in vehicles with a high content of alcohols ([2]; isopropanol or mixtures of alcohols with longer (C₄-C₁₀) alkane or alkene chains): soluble; solubility in water ([2]; water): insoluble

With `C[C@]12CC[C@H](O)CC1=CC[C@@H]1[C@@H]2CC[C@]2(C)C(=O)CC[C@@H]12` [DHA, dehydroepiandrosterone] as the compound, how does the “stimulation of flank organ growth” value (flank organs) read?
Its value is “stimulation of both flank organs”.

For `C[C@]12CCC(=O)C[C@@H]1CC[C@@H]1[C@@H]2CC[C@]2(C)[C@@H](O)CC[C@@H]12` [DHT, dihydrotestosterone], which “flank organ sebaceous gland growth and pigmentation” value (flank organ) is on record?
The value was “unilateral stimulation of sebaceous gland growth and pigmentation”.

With `CC(=O)[C@H]1CC[C@H]2[C@@H]3CCC4=CC(=O)CC[C@]4(C)[C@H]3CC[C@]12C` [progesterone] as the compound, how does the “flank organ sebaceous gland growth and pigmentation” value (flank organ) read?
The value was “did not cause flank organ growth or increased pigmentation”.

Which “flank organ sebaceous gland growth and pigmentation” value (flank organ) does the source give for `C[C@]12CCC(=O)C=C1CC[C@@H]1[C@@H]2CC[C@@]2(C)[C@H]1CC[C@]2(C)O` [methyltestosterone] here?
Its value is “unilateral stimulation of sebaceous gland growth and pigmentation”.

Which “flank organ sebaceous gland growth and pigmentation” value (flank organ) does the source give for `C[C@]12CC[C@@H](O)C[C@@H]1CC[C@@H]1[C@@H]2CC[C@]2(C)C(=O)CC[C@@H]12` [androsterone] here?
The value was “did not cause flank organ growth or increased pigmentation”.

With `C[C@]12CC[C@H](O)C[C@@H]1CC[C@@H]1[C@@H]2CC[C@]2(C)C(=O)CC[C@@H]12` [epiandrosterone] as the compound, how does the “flank organ sebaceous gland growth and pigmentation” value (flank organ) read?
Its value is “did not cause flank organ growth or increased pigmentation”.

For `C[C@]12CCC(=O)C=C1CC[C@@H]1[C@@H]2CC[C@]2(C)C(=O)CC[C@@H]12` [androstenedione, Δ⁴-androstenedione], which “flank organ sebaceous gland growth and pigmentation” value (flank organ) is on record?
The value was “unilateral stimulation of sebaceous gland growth and pigmentation”.

For `C[C@]12CC[C@H]3[C@@H](CCC4=CC(=O)CC[C@@]43C)[C@@H]1CC[C@@H]2O` [testosterone], which “flank organ sebaceous gland growth and pigmentation” value (flank organ) is on record?
The value was “unilateral stimulation of sebaceous gland growth and pigmentation”.
